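Compound exposure: 48 hours, 5 concentrations, 96-well plates. Abbreviation: GI50, concentration required for 50% inhibition of growth. At the TGI there is no net growth.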
Assays:
Assay in all cases: DTP human tumour cell line panel, 48 h
[1] = system: A549 NSCLC
[2] = system: CAKI-1 renal
[3] = system: EKVX NSCLC
[4] = system: HCT-116 colon
[5] = system: KM12 colon
[6] = system: MDA-MB-435
[7] = system: NCI/ADR-RES ovarian
[8] = system: OVCAR-4 ovarian
[9] = system: SR leukemia
[10] = system: U251 CNS

`CN(C)CCOC(=O)Nc1nc2ccc(Sc3ccccc3)cc2[nH]1` gave a GI50 [1] of 4.97 µM, a TGI [1] of 18.3 µM and a GI50 [2] of 3.16 µM. It also gave a TGI [2] of 17.2 µM, a GI50 [3] of 5.75 µM and a TGI [3] of 22.7 µM. For the same molecule, the GI50 [4] was 3.16 µM, the TGI [4] was 12.6 µM and the GI50 [5] was 3.51 µM. The TGI [5] was 19.7 µM, the GI50 [6] was 0.432 µM and the TGI [6] was 2.26 µM. The GI50 [7] was 2.44 µM, the TGI [7] was 9.65 µM and the GI50 [8] was 6.3 µM. It also gave a TGI [8] greater than 100 µM, a GI50 [9] of 0.921 µM and a TGI [9] of 19.4 µM. The GI50 [10] was 3.04 µM and the TGI [10] was 12.1 µM.
For `CCn1ccc(NS(=O)(=O)c2ccc(N)cc2)nc1=O`, the GI50 [1] was greater than 100 µM, the TGI [1] was greater than 100 µM and the GI50 [2] was greater than 100 µM. The TGI [2] was greater than 100 µM, the GI50 [3] was greater than 100 µM and the TGI [3] was greater than 100 µM. For the same molecule, the GI50 [4] was greater than 100 µM, the TGI [4] was greater than 100 µM and the GI50 [5] was greater than 100 µM. For the same molecule, the TGI [5] was greater than 100 µM, the GI50 [6] was greater than 100 µM and the TGI [6] was greater than 100 µM. The GI50 [7] was greater than 100 µM, the TGI [7] was greater than 100 µM and the GI50 [8] was greater than 100 µM. The TGI [8] was greater than 100 µM, the GI50 [9] was greater than 100 µM and the TGI [9] was greater than 100 µM. For the same molecule, the GI50 [10] was greater than 100 µM and the TGI [10] was greater than 100 µM.
Work on `[CH3][Sn]([CH3])([CH3])[O][N+](=O)[O-]` yielded a GI50 [1] greater than 10 µM, a TGI [1] greater than 10 µM and a GI50 [2] of 4.24 µM. The TGI [2] was greater than 10 µM, the GI50 [3] was greater than 10 µM and the TGI [3] was greater than 10 µM. For the same molecule, the GI50 [4] was 2.9 µM, the TGI [4] was greater than 10 µM and the GI50 [5] was greater than 10 µM. It also gave a TGI [5] greater than 10 µM, a GI50 [6] of 5.93 µM and a TGI [6] greater than 10 µM. It also gave a GI50 [7] of 2.3 µM, a TGI [7] of 5.7 µM and a GI50 [8] of 2.66 µM. For the same molecule, the TGI [8] was 5.53 µM, the GI50 [9] was 1.48 µM and the TGI [9] was 3.33 µM. It also gave a GI50 [10] of 1.45 µM and a TGI [10] of 2.77 µM.
`O=C(/C=C/OC(=O)c1cccc(Cl)c1)c1ccc(Cl)cc1` showed a GI50 [1] greater than 100 µM, a TGI [1] greater than 100 µM and a GI50 [2] greater than 51.5 µM. It also gave a TGI [2] greater than 100 µM, a GI50 [3] greater than 100 µM and a TGI [3] greater than 100 µM. For the same molecule, the GI50 [4] was 31.3 µM, the TGI [4] was greater than 100 µM and the GI50 [5] was greater than 74.6 µM. It also gave a TGI [5] greater than 100 µM, a GI50 [6] of 44.6 µM and a TGI [6] greater than 100 µM. The GI50 [7] was 63.9 µM, the TGI [7] was greater than 100 µM and the GI50 [8] was greater than 72.5 µM. It also gave a TGI [8] greater than 100 µM, a GI50 [9] of 22.9 µM and a TGI [9] greater than 92 µM. The GI50 [10] was 38.1 µM and the TGI [10] was greater than 100 µM.
`FC(F)(F)c1cc(Nc2ccc3cc(OCCCN4CCOCC4)ccc3n2)ccc1Cl` was tested, and the GI50 [1] was 1.93 µM, the TGI [1] was 4.3 µM and the GI50 [2] was 1.66 µM. For the same molecule, the TGI [2] was 3.44 µM, the GI50 [3] was 2.3 µM and the TGI [3] was 6.21 µM. For the same molecule, the GI50 [4] was 1.65 µM, the TGI [4] was 3.14 µM and the GI50 [5] was 1.92 µM. The TGI [5] was 4.37 µM, the GI50 [6] was 1.75 µM and the TGI [6] was 3.61 µM. The GI50 [7] was 2.69 µM, the TGI [7] was 18 µM and the GI50 [8] was 2.54 µM. The TGI [8] was 12.8 µM, the GI50 [9] was 1.4 µM and the TGI [9] was 4.73 µM. For the same molecule, the GI50 [10] was 1.27 µM and the TGI [10] was 2.75 µM.
Molecule `COc1ccc2c(c1OC(C)=O)C1=CC(=O)CCC13CCNC3C2` (stereo not given) has a TGI [1] greater than 100 µM, a TGI [2] greater than 100 µM and a TGI [3] greater than 100 µM. It also gave a TGI [4] greater than 100 µM, a TGI [5] greater than 100 µM and a TGI [6] greater than 100 µM. It also gave a TGI [7] greater than 100 µM, a TGI [8] greater than 100 µM and a TGI [9] greater than 100 µM. It also gave a TGI [10] greater than 100 µM.
